Experimental data published in PubChem BioAssay AID504928 (The Scripps Research Institute Molecular Screening Center, 2011).
Active and inactive are the calls of the source. The rule behind the calls is not given here.

Assays:
Assay in all cases: cell viability loss in various cell types – MTT absorbance, EuMyc, HS578, 70Z/3, T47D, SKBR, late-stage follow-up (AID 504928)
Conditions in all cases: tumor cell line panel viability, at 10 µM, stronger effect = lower value
70Z/3 Cell Line = tested on: 70Z/3 Cell Line
9E10 Cell Line = tested on: 9E10 Cell Line
EuMyc Lymphoma Cell Line = tested on: EuMyc Lymphoma Cell Line
HS578 Cell Line = tested on: HS578 Cell Line
Jurkat Cell Line = tested on: Jurkat Cell Line
MCF7 Cell Line = tested on: MCF7 Cell Line
MD-MDA-231 Cell Line = tested on: MD-MDA-231 Cell Line
Raji Cell Line = tested on: Raji Cell Line
SKBR Cell Line = tested on: SKBR Cell Line
T47D Cell Line = tested on: T47D Cell Line

O=c1cc(N2CCN(c3cccc(Cl)c3)CC2)[nH]c(=O)n1C1CCCCC1 was tested. Which viability fold change (70Z/3 Cell Line) did it give?
The viability fold change was 0.5.

What about the viability fold change (9E10 Cell Line) of the same compound?
Its viability fold change is 0.8 (inactive).

And the viability fold change (EuMyc Lymphoma Cell Line)?
Its viability fold change is 0.63 (inactive).

What about the viability fold change (HS578 Cell Line) of the same compound?
Its viability fold change is 0.16.

What about the viability fold change (Jurkat Cell Line) of the same compound?
The viability fold change was 0.19.

And the viability fold change (MCF7 Cell Line)?
The viability fold change was 0.17.

And the viability fold change (MD-MDA-231 Cell Line)?
The viability fold change was 0.11.

What about the viability fold change (Raji Cell Line) of the same compound?
Its viability fold change is 0.19.

And the viability fold change (SKBR Cell Line)?
Its viability fold change is 0.19.

What about the viability fold change (T47D Cell Line) of the same compound?
The viability fold change was 0.19.
